Measured values reported in ChEMBL document CHEMBL6109129, “Discovery of Conformationally Constrained Dihydro Benzo-Indole Derivatives as Metallo-β-Lactamase Inhibitors to Tackle Multidrug-Resistant Bacterial Infections” (J Med Chem, 2025).
The source made the active and inactive calls. No cut-off for these calls is given here.

How the values were obtained:
[1] = target: Metallo-beta-lactamase type 2 (Bacteria) (UniProt C7C422); test: Induction of thermal stabilization of NDM-1 (unknown origin) assessed as melting temperature at 6.25 uM by differential scanning fluorimetry analysis
[2] = system: Klebsiella pneumoniae; test: Synergistic antibacterial activity against carbapenem-resistant Klebsiella pneumoniae 565345 assessed as reduction in microbial growth at 4 ug/ml measured after 16 to 18 hrs in presence of meropenem by microbial dilution method; type: functional; settings: dose 4 µg/ml, time 16-18 hrs
[3] = system: Escherichia coli; test: Synergistic antibacterial activity against carbapenem-resistant Escherichia coli 565988 assessed as reduction in microbial growth at 4 ug/ml measured after 16 to 18 hrs in presence of imipenem by microbial dilution method; type: functional; settings: dose 4 µg/ml, time 16-18 hrs
[4] = system: Klebsiella pneumoniae; test: Synergistic antibacterial activity against carbapenem-resistant Klebsiella pneumoniae 552439 assessed as reduction in microbial growth at 4 ug/ml measured after 16 to 18 hrs in presence of imipenem by microbial dilution method; type: functional; settings: dose 4 µg/ml, time 16-18 hrs
[5] = system: Klebsiella pneumoniae; test: Synergistic antibacterial activity against Klebsiella pneumoniae ATCC BAA 2146 expressing NDM-1 measured after 16 to 18 hrs in presence of meropenem by microbial dilution method; type: functional, organism-based; settings: time 16-18 hrs
[6] = system: Escherichia coli; test: Synergistic antibacterial activity against carbapenem-resistant Escherichia coli 567975 assessed as reduction in microbial growth at 16 ug/ml measured after 16 to 18 hrs in presence of imipenem by microbial dilution method; type: functional; settings: dose 16 µg/ml, time 16-18 hrs
[7] = system: Escherichia coli; test: Synergistic antibacterial activity against carbapenem-resistant Escherichia coli BAA-2469 assessed as reduction in microbial growth at 16 ug/ml measured after 16 to 18 hrs in presence of meropenem by microbial dilution method; type: functional; settings: dose 16 µg/ml, time 16-18 hrs
[8] = system: Klebsiella pneumoniae; test: Synergistic antibacterial activity against carbapenem-resistant Klebsiella pneumoniae BAA-2473 assessed as reduction in microbial growth at 8 ug/ml measured after 16 to 18 hrs in presence of meropenem by microbial dilution method; type: functional; settings: dose 8 µg/ml, time 16-18 hrs
[9] = system: Escherichia coli; test: Synergistic antibacterial activity against carbapenem-resistant Escherichia coli BAA-2471 assessed as reduction in microbial growth at 16 ug/ml measured after 16 to 18 hrs in presence of imipenem by microbial dilution method; type: functional; settings: dose 16 µg/ml, time 16-18 hrs
[10] = system: Escherichia coli; test: Synergistic antibacterial activity against carbapenem-resistant Escherichia coli 571307 assessed as reduction in microbial growth at 4 ug/ml measured after 16 to 18 hrs in presence of meropenem by microbial dilution method; type: functional; settings: dose 4 µg/ml, time 16-18 hrs
[11] = target: Metallo-beta-lactamase type 2 (Bacteria) (UniProt C7C422); test: Induction of thermal stabilization of NDM-1 (unknown origin) assessed as increase in melting temperature by differential scanning fluorimetry analysis; settings: dose 3.12-50 µM
[12] = system: Escherichia coli; test: Synergistic antibacterial activity against carbapenem-resistant Escherichia coli 541588 assessed as reduction in microbial growth at 4 ug/ml measured after 16 to 18 hrs in presence of imipenem by microbial dilution method; type: functional; settings: dose 4 µg/ml, time 16-18 hrs
[13] = system: Klebsiella pneumoniae; test: Synergistic antibacterial activity against carbapenem-resistant Klebsiella pneumoniae 565345 assessed as reduction in microbial growth at 16 ug/ml measured after 16 to 18 hrs in presence of imipenem by microbial dilution method; type: functional; settings: dose 16 µg/ml, time 16-18 hrs
[14] = system: Klebsiella pneumoniae subsp. pneumoniae; test: Synergistic antibacterial activity against carbapenem-resistant Klebsiella pneumoniae subsp. pneumoniae BAA-2472 assessed as reduction in microbial growth at 0.5 ug/ml measured after 16 to 18 hrs in presence of imipenem by microbial dilution method; type: functional; settings: dose 0.5 µg/ml, time 16-18 hrs
[15] = system: HepG2; test: Cytotoxicity in human HepG2 cells assessed as inhibition of cell growth measured after 24 hrs by MTT assay; type: functional, cell-based; settings: HepG2, 24 h
[16] = target: Metallo-beta-lactamase type 2 (Bacteria) (UniProt C7C422); test: Induction of thermal stabilization of NDM-1 (unknown origin) assessed as melting temperature at 12.5 uM by differential scanning fluorimetry analysis
[17] = system: Klebsiella pneumoniae; test: Synergistic antibacterial activity against carbapenem-resistant Klebsiella pneumoniae 571278 assessed as reduction in microbial growth at 16 ug/ml measured after 16 to 18 hrs in presence of imipenem by microbial dilution method; type: functional; settings: dose 16 µg/ml, time 16-18 hrs
[18] = system: Enterobacter cloacae; test: Synergistic antibacterial activity against carbapenem-resistant Enterobacter cloacae BAA-2468 assessed as reduction in microbial growth at 16 ug/ml measured after 16 to 18 hrs in presence of meropenem by microbial dilution method; type: functional; settings: dose 16 µg/ml, time 16-18 hrs
[19] = system: Klebsiella pneumoniae subsp. pneumoniae; test: Synergistic antibacterial activity against carbapenem-resistant Klebsiella pneumoniae BAA-2472 assessed as reduction in microbial growth at 16 ug/ml measured after 16 to 18 hrs in presence of meropenem by microbial dilution method; type: functional; settings: dose 16 µg/ml, time 16-18 hrs
[20] = target: Metallo-beta-lactamase type 2 (Bacteria) (UniProt C7C422); test: Induction of thermal stabilization of NDM-1 (unknown origin) assessed as melting temperature at 25 uM by differential scanning fluorimetry analysis
[21] = system: Klebsiella pneumoniae subsp. pneumoniae; test: Synergistic antibacterial activity against carbapenem-resistant Klebsiella pneumoniae subsp. pneumoniae BAA-2472 assessed as reduction in microbial growth at 8 ug/ml measured after 16 to 18 hrs in presence of imipenem by microbial dilution method; type: functional; settings: dose 8 µg/ml, time 16-18 hrs
[22] = Plasma protein binding in mouse assessed as unbound fraction at 10 uM measured after 5 hrs by LC-MS/MS analysis; type: ADME, cell-free
[23] = Octanol/aqueous buffer distribution coefficient, log D of the compound at pH 7.4 incubated for 4 hrs under shaking condition by HPLC analysis; type: physicochemical
[24] = system: Klebsiella pneumoniae; test: Synergistic antibacterial activity against carbapenem-resistant Klebsiella pneumoniae 571278 assessed as reduction in microbial growth at 4 ug/ml measured after 16 to 18 hrs in presence of imipenem by microbial dilution method; type: functional; settings: dose 4 µg/ml, time 16-18 hrs
[25] = Plasma protein binding in human assessed as unbound fraction at 10 uM measured after 5 hrs by LC-MS/MS analysis; type: ADME, cell-free
[26] = system: Klebsiella pneumoniae; test: Synergistic antibacterial activity against carbapenem-resistant Klebsiella pneumoniae 565345 assessed as reduction in microbial growth at 4 ug/ml measured after 16 to 18 hrs in presence of imipenem by microbial dilution method; type: functional; settings: dose 4 µg/ml, time 16-18 hrs

Metallo-beta-lactamase type 2 (Bacteria), sequence (C7C422 whole entry): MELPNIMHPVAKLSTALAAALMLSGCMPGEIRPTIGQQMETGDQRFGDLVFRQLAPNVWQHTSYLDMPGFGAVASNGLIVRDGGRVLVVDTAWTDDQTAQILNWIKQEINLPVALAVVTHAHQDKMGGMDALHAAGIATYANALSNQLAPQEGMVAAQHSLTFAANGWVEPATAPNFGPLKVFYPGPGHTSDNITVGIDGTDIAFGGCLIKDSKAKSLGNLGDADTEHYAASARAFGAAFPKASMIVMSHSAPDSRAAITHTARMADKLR

COc1ccc(Cl)cc1-c1c(C(=O)O)[nH]c2c1CCc1ccccc1-2 showed a ΔTm [1] of 17 °C, an MIC [2] of 4 mg/L and an MIC [3] of 1 mg/L. For the same compound, the MIC [4] was 4 mg/L, the Activity [5] was “Active” and the MIC [6] was 1 mg/L. For the same compound, the MIC [7] was 2 mg/L, the MIC [8] was 16 mg/L and the MIC [9] was 8 mg/L. For the same compound, the MIC [10] was 2 mg/L, the Activity [11] was “Active” and the MIC [12] was 1 mg/L. It also gave an MIC [13] of 8 mg/L, an MIC [14] of 64 mg/L and an IC50 [15] of over 400 µM. The Tm [16] was 18 °C, the MIC [17] was 4 mg/L and the MIC [18] was 4 mg/L. The MIC [19] was 32 mg/L, the Tm [20] was 19 °C and the MIC [21] was 32 mg/L. It also gave a fraction unbound at 5 h, 10 µM [22] of 0.952, a logD at 4 h [23] of 2.58 and an MIC [24] of 8 mg/L. The fraction unbound at 5 h, 10 µM [25] was 0.992 and the MIC [26] was 32 mg/L.
